Consider three compounds from BindingDB's records for patent US20230365537 (Oric Pharmaceuticals, 2023).

Test [1] has as its target T1, Serine/threonine-protein kinase PLK4 (Homo sapiens, UniProt O00444).
T1 sequence (O00444 whole entry): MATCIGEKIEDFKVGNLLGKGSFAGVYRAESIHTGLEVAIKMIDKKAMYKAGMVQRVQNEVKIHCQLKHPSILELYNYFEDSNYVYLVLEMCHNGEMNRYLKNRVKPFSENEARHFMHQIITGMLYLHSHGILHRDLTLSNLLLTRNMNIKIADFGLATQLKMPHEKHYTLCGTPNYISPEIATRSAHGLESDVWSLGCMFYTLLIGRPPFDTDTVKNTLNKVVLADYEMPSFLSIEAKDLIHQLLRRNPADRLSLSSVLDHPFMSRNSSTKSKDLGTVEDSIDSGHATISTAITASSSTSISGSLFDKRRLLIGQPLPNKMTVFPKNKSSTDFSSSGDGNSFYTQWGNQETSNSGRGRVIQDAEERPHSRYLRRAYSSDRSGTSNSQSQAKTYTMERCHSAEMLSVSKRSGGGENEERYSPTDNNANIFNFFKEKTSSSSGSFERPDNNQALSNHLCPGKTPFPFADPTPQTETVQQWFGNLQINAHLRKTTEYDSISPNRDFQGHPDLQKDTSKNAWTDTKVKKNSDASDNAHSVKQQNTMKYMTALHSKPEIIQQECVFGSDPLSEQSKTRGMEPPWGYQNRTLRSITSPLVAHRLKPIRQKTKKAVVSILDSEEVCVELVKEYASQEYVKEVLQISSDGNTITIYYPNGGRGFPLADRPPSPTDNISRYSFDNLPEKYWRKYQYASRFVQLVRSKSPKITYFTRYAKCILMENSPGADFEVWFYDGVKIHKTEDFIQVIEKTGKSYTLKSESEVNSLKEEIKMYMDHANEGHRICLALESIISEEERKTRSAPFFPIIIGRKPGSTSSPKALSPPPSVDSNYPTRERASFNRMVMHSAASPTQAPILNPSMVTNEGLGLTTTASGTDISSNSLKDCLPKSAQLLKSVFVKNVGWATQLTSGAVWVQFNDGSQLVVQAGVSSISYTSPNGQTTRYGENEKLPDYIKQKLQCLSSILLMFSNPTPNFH
Briefly: PLK4 Biochemical Assay. The procedure:
(§1) Activity of human recombinant PLK4 (ThermoFisher, cat #PV6396) was measured by quantification of adenosine diphosphate (ADP) using the ADP-Glo Kinase Assay Kit (Promega, cat #V9102). […] 5 µL of 1.0 nM PLK4 protein in assay buffer (50 mM HEPES, pH 7.5, 0.01% Brij-35, 0.01% BSA, 10 mM MgCl2, 1 mM EGTA, 1 mM DTT) was added to the plates. Test compounds and PLK4 were incubated for 15 minutes at room temperature (RT). […] Reactions were stopped and the remaining ATP depleted by adding 10 µL of ADP-Glo reagent (Promega, cat#V912B) and incubating for 40 minutes at RT. The simultaneous conversion of the remaining ADP to ATP and measurement of the newly synthesized ATP was achieved by addition of 20 µL Kinase Detection reagent (Promega, cat #V914B), incubation for 30 min at RT, and luminescence detection using the EnVision plate reader (PerkinElmer). […] The IC50 values reported in Table 2 were determined using four parameter non-linear regression curve fit.

Another test has as its target T2, Aurora kinase A (Homo sapiens, UniProt O14965).
T2 sequence (O14965 whole entry): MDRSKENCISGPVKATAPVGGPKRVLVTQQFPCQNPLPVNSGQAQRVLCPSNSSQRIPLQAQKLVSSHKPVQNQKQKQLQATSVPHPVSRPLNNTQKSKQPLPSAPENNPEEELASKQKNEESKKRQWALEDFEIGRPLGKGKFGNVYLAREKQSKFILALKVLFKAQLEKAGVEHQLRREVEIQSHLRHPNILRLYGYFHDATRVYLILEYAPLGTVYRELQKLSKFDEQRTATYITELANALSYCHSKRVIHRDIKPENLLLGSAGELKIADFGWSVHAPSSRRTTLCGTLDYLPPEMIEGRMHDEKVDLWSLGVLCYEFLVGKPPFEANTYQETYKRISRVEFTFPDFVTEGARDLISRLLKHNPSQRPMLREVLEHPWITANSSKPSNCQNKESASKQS
Briefly: Aurora A Kinase Biochemical Assay. The procedure: as §1, with “Aurora A” for “PLK4”, “#PR5935A)” for “#PV6396)”, “5.0” for “1.0”, “Aurora A” for “PLK4 protein”, “10uL” for “10 µL”

In another test the target is Aurora kinase B (Homo sapiens, UniProt Q96GD4). Briefly: Aurora B Kinase Biochemical Assay. The procedure:
as §1, with “Aurora B” for “PLK4”, “#PR9210B)” for “#PV6396)”, “20” for “1.0”, “Aurora B” for “PLK4 protein”, “10uL” for “10 µL”, “parameter” for “parameter non-linear regression curve fit.”

Where “and” joins values, the source holds several entries; their conditions need not be identical. Equal entries are not always repeated.

Aurora kinase B, sequence (Q96GD4 whole entry): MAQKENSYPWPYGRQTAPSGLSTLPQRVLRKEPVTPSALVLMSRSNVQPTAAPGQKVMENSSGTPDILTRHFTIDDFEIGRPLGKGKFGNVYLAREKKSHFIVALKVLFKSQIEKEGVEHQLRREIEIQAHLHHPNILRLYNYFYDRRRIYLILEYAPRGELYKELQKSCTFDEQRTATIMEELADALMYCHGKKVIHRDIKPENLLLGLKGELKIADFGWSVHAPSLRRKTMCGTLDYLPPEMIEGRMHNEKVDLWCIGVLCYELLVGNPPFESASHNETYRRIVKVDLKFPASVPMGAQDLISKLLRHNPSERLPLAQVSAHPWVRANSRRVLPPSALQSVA

Regarding `COc1ccc2c(c1)[C@]1(C[C@H]1c1ccc3c(Nc4cc(N5CCN(C)C5=O)cnc4OC)n[nH]c3c1)C(=O)N2` [US20230365537, Example 221], half-maximal inhibition in test [1] (IC50) was put at 2.8 nM.
As to `COc1ccc2c(c1)[C@]1(C[C@H]1c1ccc3c(Nc4cc(S(=O)(=O)C5CCOCC5)ccc4OC)n[nH]c3c1)C(=O)N2` [US20230365537, Example 224], half-maximal inhibition in test [1] (IC50) required 4.02 nM.
Consider `COc1ccc2c(c1)[C@]1(C[C@H]1c1ccc3c(Nc4ccc(S(C)(=O)=O)nc4OC)n[nH]c3c1)C(=O)N2` [US20230365537, Example 168], for which the IC50 against Aurora kinase A is 1860 nM and 2030 nM; against Aurora kinase B, 521 nM and 1060 nM.
